# Source: patent US12180194B2, “Multi-aziridine compound” (Covestro (Netherlands) B.V., priority 2018, dated 2024)
# Tests used:
# Bscl2-GFP = assay: ToxTracker genotoxicity assay, Bscl2-GFP reporter induction; conditions: for Genotoxicity test, Bscl 2 induction level: fold induction
# Rtkn-GFP = assay: ToxTracker genotoxicity assay, Rtkn-GFP reporter induction; conditions: for Genotoxicity test, Rtkn induction level: fold induction
# [1] = GFP induction vs vehicle at 10% cytotoxicity, 3 h exposure with S9, 24 h recovery
# [2] = GFP induction vs vehicle at 10% cytotoxicity, 24 h exposure, no S9
# [3] = GFP induction vs vehicle at 25% cytotoxicity, 3 h exposure with S9, 24 h recovery
# [4] = GFP induction vs vehicle at 25% cytotoxicity, 24 h exposure, no S9
# [5] = GFP induction vs vehicle at 50% cytotoxicity, 3 h exposure with S9, 24 h recovery
# [6] = GFP induction vs vehicle at 50% cytotoxicity, 24 h exposure, no S9
# [7] = with S9 rat liver extract, concentration 10 (10% cytotoxicity)
# [8] = with S9 rat liver extract, concentration 25 (25% cytotoxicity)
# [9] = with S9 rat liver extract, concentration 50 (50% cytotoxicity)
# [10] = without S9 rat liver extract, concentration 10 (10% cytotoxicity)
# [11] = without S9 rat liver extract, concentration 25 (25% cytotoxicity)
# [12] = without S9 rat liver extract, concentration 50 (50% cytotoxicity)
Structure (SMILES),"Genotoxicity test, Bscl 2 induction level (Bscl2-GFP; [7])","Genotoxicity test, Bscl 2 induction level (Bscl2-GFP; [8])","Genotoxicity test, Bscl 2 induction level (Bscl2-GFP; [9])","Genotoxicity test, Bscl 2 induction level (Bscl2-GFP; [10])","Genotoxicity test, Bscl 2 induction level (Bscl2-GFP; [11])","Genotoxicity test, Bscl 2 induction level (Bscl2-GFP; [12])","Genotoxicity test, Rtkn induction level (Rtkn-GFP; [7])","Genotoxicity test, Rtkn induction level (Rtkn-GFP; [8])","Genotoxicity test, Rtkn induction level (Rtkn-GFP; [9])","Genotoxicity test, Rtkn induction level (Rtkn-GFP; [10])","Genotoxicity test, Rtkn induction level (Rtkn-GFP; [11])","Genotoxicity test, Rtkn induction level (Rtkn-GFP; [12])",further results
COCCOCCOCCOCCOCCOCCOCCOCCOCCOCCOCCOCCOCCOCC(CN1CC1C)OC(=O)NCCCCCCn1c(=O)n(CCCCCCNC(=O)OC(COCCOCCOCCOCCOCCOCCOCCOCCOCCOCCOCCOCCOCCOC)CN2CC2C)c(=O)n(CCCCCCNC(=O)OC(COCCOCCOCCOCCOCCOCCOCCOCCOCCOCCOCCOCCOCCOC)CN2CC2C)c1=O (stereo not shown) [Ex. 29],,,,,,,,,,,,,"Genotoxicity test, With S9 rat liver extract, Bscl 2, 10 (Bscl2-GFP; [1]): 1.1 fold; Genotoxicity test, Without S9 rat liver extract, Bscl 2, 10 (Bscl2-GFP; [2]): 1.1 fold; Genotoxicity test, With S9 rat liver extract, Bscl 2, 25 (Bscl2-GFP; [3]): 1.1 fold; Genotoxicity test, Without S9 rat liver extract, Bscl 2, 25 (Bscl2-GFP; [4]): 1.4 fold; Genotoxicity test, With S9 rat liver extract, Bscl 2, 50 (Bscl2-GFP; [5]): 1.1 fold; Genotoxicity test, Without S9 rat liver extract, Bscl 2, 50 (Bscl2-GFP; [6]): 1.4 fold; Genotoxicity test, With S9 rat liver extract, Rtkn, 10 (Rtkn-GFP; [1]): 1.1 fold; Genotoxicity test, Without S9 rat liver extract, Rtkn, 10 (Rtkn-GFP; [2]): 1.0 fold; Genotoxicity test, With S9 rat liver extract, Rtkn, 25 (Rtkn-GFP; [3]): 1.1 fold; Genotoxicity test, Without S9 rat liver extract, Rtkn, 25 (Rtkn-GFP; [4]): 1.1 fold; Genotoxicity test, With S9 rat liver extract, Rtkn, 50 (Rtkn-GFP; [5]): 1.1 fold; Genotoxicity test, Without S9 rat liver extract, Rtkn, 50 (Rtkn-GFP; [6]): 1.1 fold"
COCCOCCOCCOCCOCCOCCOCCOCCOCCOCCOCCOCCOCCOCCOCCOCCOCCOCCOCCOCCOCCOCCOCCOCCOCCOCC(CN1CC1C)OC(=O)NCCCCCCn1c(=O)n(CCCCCCNC(=O)OC(COCCOCCOCCOCCOCCOCCOCCOCCOCCOCCOCCOCCOCCOCCOCCOCCOCCOCCOCCOCCOCCOCCOCCOCCOCCOC)CN2CC2C)c(=O)n(CCCCCCNC(=O)OC(COCCOCCOCCOCCOCCOCCOCCOCCOCCOCCOCCOCCOCCOCCOCCOCCOCCOCCOCCOCCOCCOCCOCCOCCOCCOC)CN2CC2C)c1=O (stereo not shown) [Ex. 30],1.0,1.5,1.8,1.0,1.3,1.6,0.8,0.9,1.0,0.9,0.9,1.0,
CCCCOCC(CN1CC1(C)C)OC(=O)NCCCCCCn1c(=O)n(CCCCCCNC(=O)OC(COCCCC)CN2CC2(C)C)c(=O)n(CCCCCCNC(=O)OC(COCCCC)CN2CC2(C)C)c1=O (stereo not shown) [Ex. 31],1.1,1.1,1.1,1.2,1.2,,1.2,1.2,1.3,1.2,1.2,,
CCCCOCC(CN1CC1CC)OC(=O)NCCCCCCn1c(=O)n(CCCCCCNC(=O)OC(COCCCC)CN2CC2CC)c(=O)n(CCCCCCNC(=O)OC(COCCCC)CN2CC2CC)c1=O (stereo not shown) [Ex. 32],1.1,1.1,1.1,1.1,1.2,1.3,1.0,1.1,1.1,1.0,1.1,1.1,
